Measured values reported in PMC5854577, “A common mechanism of proteasome impairment by neurodegenerative disease-associated oligomers” (Nature Communications, 2018).
Starred links: 1 amine or outer side, 2 acyl side, 3 side chain; linkers in the order of their positions; H or OH if unused. Residues, ends and D or L forms follow the SMILES beside them. *: point of attachment. AMC = Cc1cc(=O)oc2cc(N*)ccc12; Suc = O=C(CCC(=O)[*:2])[*:1]

Target: T1, Mammalian 20S proteasome (bovine 20S) (Bos taurus, UniProt Q32KL2+Q3MHN0+Q3T0X5+Q5E987)
T1 construct: gene PSMB5; with Proteasome subunit beta type-1; Proteasome subunit beta type-2; Proteasome subunit beta type-3; Proteasome subunit beta type-4
Test: fluorogenic peptide hydrolysis
Assay type: biochemical
Conditions: chymotrypsin-like activity; 100 uM substrate, pH 7.4

## Cc1cc(=O)oc2cc(NC(=O)[C@H](Cc3ccc(O)cc3)NC(=O)[C@@H](NC(=O)[C@H](CC(C)C)NC(=O)[C@H](CC(C)C)NC(=O)CCC(=O)O)C(C)C)ccc12 [suc-LLVY-amc] (Suc-LLVY-{AMC})
  fluorogenic peptide hydrolysis: Proteasome activity (linear rate of LLVY-amc hydrolysis)
